We go through six molecules from patent US11987556B2, “Dual-functional compounds and methods of use” (BIOFRONT THERAPEUTICS (BEIJING) CO., LTD., priority 2020, dated 2024).

Series [1] can be described thus: Blood level of compound-6 produced after oral dosing of compound-1 in mice. The conditions noted are these: 5 mg/kg. The format is in vivo. As to the method: The exemplified compound-1 (formulated at 0.5 mg/mL in 0.5% carboxymethyl cellulose (CMC)/0.25% Tween-80 in water as a suspension) was dosed orally to 4 mice at 5 mg/kg. […] Approximately 200 ng/mL of compound-6 was detected in the blood at 15 min. Compound-6 blood level peaked at approximately 250 ng/mL between 1 to 2 hrs, and mostly cleared to around 25 ng/mL at 6 hr. […] This kinetic profile of compound-6 blood level provides the opportunities to treat diseases that are responsive to compound-6 treatment, beyond dosing compound-6 directly, such as reducing the expected high Cmax-caused side effects from directly dosing compound-6.

The target in a further series is human recombinant PDE4C (Homo sapiens (Human), UniProt Q08493). Briefly: PDE fluorescence polarization assay (BPS Bioscience kit), PDE4C. Format: biochemical. The settings on record: FAM-cAMP substrate, 1 hr at room temperature; read-out: IC50 for inhibiting PDE4C. As to the method:
(§1) The inhibition of PDE4 (e.g., PDE4A, PDE4C) activity by the compounds (e.g., compound-1, compound-2, compound-3, compound-4, compound-5, and compound-6) are monitored using the PDE fluorescence polarization assay kits from BPS Bioscience (San Diego, USA) following the provided procedure. This assay is based on the selective binding of the fluorescent dye FAM-labelled AMP generated by the PDEs from the FAM-cAMP to its binding beads.
(§2) Briefly, compounds (2.5 ul of different concentrations diluted in the assay buffer) were mixed with 12.5 uL of the FAM-cAMP substrate (200 nM in the assay buffer) in a 384-well plate, 10 ul of the human recombinant PDE4A (BPS, Catalog #60340) or PDE4C (BPS, Catalog #60384) was added. The plate was incubated for 1 hr at room temperature. 50 ul of the binding agent for FAM-AMP was added. The mixture was incubated at room temperature for 20 min. The amount of binding agent bound FAM-AMP was measured by the fluorescence polarization method on the Envision spectrometer. The potency (IC50 value, Table1) of exemplified compounds was calculated from the dose-response curve using the 4-parameter non-linear regression fitting routine.
In general terms: Polarisation of emitted light reports the rotation of a fluorescent probe.

For another series, the target named is human recombinant PDE4A (Homo sapiens (Human), UniProt P27815). The series is described as follows: PDE fluorescence polarization assay (BPS Bioscience kit), PDE4A. Format: biochemical. The settings on record: FAM-cAMP substrate, 1 hr at room temperature; read-out: IC50 for inhibiting PDE4A. The protocol:
as §1, §2

Chain of human recombinant PDE4A (P27815 other isoform, or with tags, fused parts or gaps isoform P27815-4): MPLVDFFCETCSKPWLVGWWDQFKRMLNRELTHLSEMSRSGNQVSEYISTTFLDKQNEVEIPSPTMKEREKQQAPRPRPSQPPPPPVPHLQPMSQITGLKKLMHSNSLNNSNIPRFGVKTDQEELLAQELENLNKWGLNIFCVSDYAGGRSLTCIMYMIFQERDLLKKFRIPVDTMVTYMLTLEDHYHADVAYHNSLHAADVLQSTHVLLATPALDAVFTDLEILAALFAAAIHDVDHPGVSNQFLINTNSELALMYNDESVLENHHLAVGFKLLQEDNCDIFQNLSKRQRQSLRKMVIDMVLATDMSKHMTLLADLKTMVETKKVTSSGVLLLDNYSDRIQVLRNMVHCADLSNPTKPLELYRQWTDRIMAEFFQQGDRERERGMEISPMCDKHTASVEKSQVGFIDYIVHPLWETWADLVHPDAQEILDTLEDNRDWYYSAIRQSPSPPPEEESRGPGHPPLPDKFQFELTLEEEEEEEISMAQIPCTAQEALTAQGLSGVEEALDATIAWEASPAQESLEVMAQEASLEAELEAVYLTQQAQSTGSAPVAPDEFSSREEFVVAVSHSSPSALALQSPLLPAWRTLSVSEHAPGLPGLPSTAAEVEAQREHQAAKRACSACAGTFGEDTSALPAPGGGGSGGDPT
Chain of human recombinant PDE4C (Q08493 whole entry): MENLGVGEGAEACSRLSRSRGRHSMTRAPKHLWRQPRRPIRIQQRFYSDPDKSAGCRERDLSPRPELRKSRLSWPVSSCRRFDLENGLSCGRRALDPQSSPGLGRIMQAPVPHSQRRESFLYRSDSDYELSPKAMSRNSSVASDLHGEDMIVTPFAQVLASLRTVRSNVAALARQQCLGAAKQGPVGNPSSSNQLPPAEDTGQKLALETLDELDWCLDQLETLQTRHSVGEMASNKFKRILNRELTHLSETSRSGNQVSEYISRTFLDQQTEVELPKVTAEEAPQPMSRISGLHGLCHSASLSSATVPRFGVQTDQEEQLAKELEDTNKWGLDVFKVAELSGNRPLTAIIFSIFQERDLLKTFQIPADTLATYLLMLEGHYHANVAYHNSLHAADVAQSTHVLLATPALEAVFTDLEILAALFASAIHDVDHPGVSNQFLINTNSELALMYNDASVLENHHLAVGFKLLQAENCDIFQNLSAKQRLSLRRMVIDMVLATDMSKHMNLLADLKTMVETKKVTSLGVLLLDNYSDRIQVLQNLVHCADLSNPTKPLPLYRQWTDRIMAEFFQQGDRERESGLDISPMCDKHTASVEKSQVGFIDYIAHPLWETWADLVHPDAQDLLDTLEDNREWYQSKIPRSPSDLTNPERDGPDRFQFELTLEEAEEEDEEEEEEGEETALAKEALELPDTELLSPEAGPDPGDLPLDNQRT

The term IC50 denotes the concentration that inhibits the measured activity by half. Take `CCOc1cc([C@@H](CS(C)(=O)=O)N2C(=O)c3cccc(NC(=O)COC(=O)C(C)(C)CO[N+](=O)[O-])c3C2=O)ccc1OC` [compound-1, (S)-2-((2-(1-(3-ethoxy-4-methoxyphenyl)-2-(methylsulfonyl)ethyl)-1,3-dioxoisoindolin-4-yl)amino)-2-oxoethyl 2,2-dimethyl-3-(nitrooxy)propanoate]: the “bioactivation after oral dosing, forming metabolite compound-6” value in series [1] was “bioactivated rapidly”. In addition, the half-maximal inhibitory concentration (IC50) came out at 2230 nM on human recombinant PDE4C and 178 nM at human recombinant PDE4A.
As to `CCOc1cc([C@@H](CS(C)(=O)=O)N2C(=O)c3cccc(NC(=O)COC(=O)C(C)(CO[N+](=O)[O-])CO[N+](=O)[O-])c3C2=O)ccc1OC` [compound-2, (S)-2-((2-(1-(3-ethoxy-4-methoxyphenyl)-2-(methylsulfonyl)ethyl)-1,3-dioxoisoindolin-4-yl)amino)-2-oxoethyl 2-methyl-3-(nitrooxy)-2-((nitrooxy)methyl)propanoate], the IC50 on human recombinant PDE4C amounted to 2260 nM; at human recombinant PDE4A, 308 nM.
As to `CCOc1cc([C@@H](CS(C)(=O)=O)N2C(=O)c3cccc(NC(=O)CNC(=O)C(C)(C)CO[N+](=O)[O-])c3C2=O)ccc1OC` [compound-3, (S)-3-((2-((2-(1-(3-ethoxy-4-methoxyphenyl)-2-(methylsulfonyl)ethyl)-1,3-dioxoisoindolin-4-yl)amino)-2-oxoethyl)amino)-2,2-dimethyl-3-oxopropyl nitrate], the IC50 at human recombinant PDE4C was 1020 nM; on human recombinant PDE4A, 215 nM.
On the same counts, the results for `CCOc1cc([C@@H](CS(C)(=O)=O)N2C(=O)c3cccc(NC(=O)CO[C@H]4CO[C@H]5[C@@H]4OC[C@H]5O[N+](=O)[O-])c3C2=O)ccc1OC` [compound-4, (3R,3aS,6S,6aR)-6-(2-((2-((S)-1-(3-ethoxy-4-methoxyphenyl)-2-(methylsulfonyl)ethyl)-1,3-dioxoisoindolin-4-yl)amino)-2-oxoethoxy)hexahydrofuro[3,2-b]furan-3-yl nitrate] are 109 nM and 710 nM.
As for `CCOc1cc([C@@H](CS(C)(=O)=O)N2C(=O)c3cccc(NC(=O)CNC(=O)O[C@H]4CO[C@H]5[C@@H]4OC[C@H]5O[N+](=O)[O-])c3C2=O)ccc1OC` [compound-5, (3S,3aR,6R,6aS)-6-(nitrooxy)hexahydrofuro[3,2-b]furan-3-yl (2-((2-((S)-1-(3-ethoxy-4-methoxyphenyl)-2-(methylsulfonyl)ethyl)-1,3-dioxoisoindolin-4-yl)amino)-2-oxoethyl)carbamate], the IC50 at human recombinant PDE4C was 826 nM; on human recombinant PDE4A, 38 nM.
Regarding `CCOc1cc([C@@H](CS(C)(=O)=O)N2C(=O)c3cccc(NC(=O)CO)c3C2=O)ccc1OC` [compound-6, N-{2-[(1S)-1-(3-ethoxy-4-methoxyphenyl)-2-methanesulfonylethyl]-1,3-dioxoisoindol-4-yl}-2-hydroxyacetamide], the values for the IC50 on human recombinant PDE4C and on human recombinant PDE4A were 734 nM and 214 nM, respectively.
